From PubChem BioAssay AID2060894 (Molecular Pharmacology Branch, DTP, NCI, 2025)

Test system: K12877-001-R-J1-PDC complex spheroid viability
Assay: Anticancer human tumor K12877-001-R-J1-PDC patient-derived lung adenocarcinoma cell line growth inhibition [RAS]
Details: for IC50: curve of first compound; for viability, T/C: stronger effect = lower value
Description: RAS pathway inhibitors in Combinations in Complex Spheroids
A high-throughput screen of multi-cell type tumor spheroids was designed to identify active combinations of RAS pathway inhibitors and targeted small molecules. Complex spheroids include a stromal component modeled by human endothelial cells (HUVEC) and fibroblasts modeled by human mesenchymal stem cells (MSCs). The concentration ranges selected for each drug and investigational agent were based upon clinically achievable concentrations if the clinical Cmax of the agent was known.
Compounds. The drugs and investigational agents: abemaciclib (NSC768073), cobimetinib (NSC768068), divarasib (GDC6063, NSC841802), docetaxel (NSC628503), GDC-1971 (RLY-1971, NSC841576), gemcitabine (NSC613327), inavolisib (NSC800729), ipatasertib (NSC767898), KB-0742 (NSC834161), MRTX-1133 (NSC836407), osimertinib (NSC779217), RMC-4630 (NSC839698), RMC-6236 (NSC851965), RMC-6291 (NSC852671), Ro-3306 (NSC812927), sapanisertib (NSC764658), SN-38 (NSC673596), staurosporine (NSC755774), SY5609 (NSC837396), and tovorafenib (DAY101, NSC766906), were obtained from the National Cancer Institute (NCI) Developmental Therapeutics Program Chemical Repository. The FDA-approved anticancer drug set is available from the NCI Developmental Therapeutics Program. […] The stock solutions were prepared in dimethyl sulfoxide (DMSO, Sigma-Aldrich, St. Louis, MO, cat. D2650) at 800-fold the tested concentration and stored at -70 degrees C prior to their use. All drugs and investigational agents were tested over a range starting from a high concentration at or near the clinical Cmax and decreasing in half-log increments. If the clinical Cmax for an agent had not been determined, the highest concentration tested was 10 microM.
Cell Culture. All cells were maintained in an incubator at 37 degrees C and 5% CO2 with 95% humidity. The PDC lines were cultured according to standard operating procedures established by the NCI PDMR. All PDCs were thawed and cultured in Matrigel-coated flasks prepared with a working solution of 1X Ham's F-12 nutrient mix, without supplementation (Invitrogen, Waltham, MA, cat. 11765054), 100 U/mL penicillin-streptomycin (Invitrogen, cat. 15140122), and 2.5% Matrigel (Corning Inc., Corning, NY, cat. 354248) for the first three passages. The 362531-283-R-J2-PDC and 782815-120-R-J1-PDC lines were cultured in 6C/Colon 1B media, which includes advanced DMEM/F-12 (Thermo Fisher Scientific, cat. 12634028), 10 mM HEPES (Thermo Fisher Scientific, cat. 15630080), 1X GlutaMAX supplement (Thermo Fisher Scientific, cat. 35050061), 0.1 mg/mL primocin (InvivoGen, San Diego, CA, cat. ant-pm-2), 10% defined fetal bovine serum, heat inactivated (HyClone Laboratories Inc., Logan, UT, cat. SH30070.03HI), 50% L-WRN conditioned media (ATCC, cat. CRL-3276), 1.25 mM N-Acetyl-L-cysteine (Sigma-Aldrich, cat. A9165), 10 mM nicotinamide (Sigma-Aldrich, cat. N0636), 1X B-27 supplement (Thermo Fisher Scientific, cat. 17504044), 1X N-2 supplement (Thermo Fisher Scientific, cat. 17502048), 50 ng/mL human EGF (Thermo Fisher Scientific, cat. PHG0311), and 10 microM Y-27632 dihydrochloride (Tocris Bioscience, cat. 1254). The K12877-001-R-J1-PDC line was cultured in 6I media, which includes all 6C/Colon 1B media plus 10 ng/mL human FGF-10 (PeproTech, cat. 100-26), 1 ng/mL human FGF-2 (PeproTech, cat. 100-18B), 1 µM prostaglandin E2 (Tocris Bioscience, cat. 2296), […] hydrocortisone (Sigma-Aldrich, cat. H4001), and […] bovine insulin (Sigma-Aldrich, cat. I6634). The K86415-001-R-J1-PDC line was cultured in 6D media, which includes all 6C/Colon 1B media components minus the L-WRN conditioned media. The 485176-168-R4-J1-PDC was cultured in PANC media, which includes all 6C/Colon 1B media plus 100 ng/mL human FGF-10 (PeproTech, cat. 100-26), 500 nM SB-431542 (Selleckchem, cat. S1067), and 10 nM gastrin (Tocris Bioscience, cat. 3006). […]

[1] = second compound 0.0316 µM, first compound 0.0316 µM
[2] = second compound 0.0316 µM, first compound 0.1 µM
[3] = second compound 0.0316 µM, first compound 0.316 µM
[4] = second compound 0.0316 µM, first compound 1 µM
[5] = second compound 0.0316 µM, first compound 3.16 µM
[6] = second compound 0.0316 µM, first compound 10 µM
[7] = second compound 0.1 µM, first compound 0.0316 µM
[8] = second compound 0.1 µM, first compound 0.1 µM
[9] = second compound 0.1 µM, first compound 0.316 µM
[10] = second compound 0.1 µM, first compound 1 µM
[11] = second compound 0.1 µM, first compound 3.16 µM
[12] = second compound 0.1 µM, first compound 10 µM
[13] = second compound 0.316 µM, first compound 0.0316 µM
[14] = second compound 0.316 µM, first compound 0.1 µM
[15] = second compound 0.316 µM, first compound 0.316 µM
[16] = second compound 0.316 µM, first compound 1 µM
[17] = second compound 0.316 µM, first compound 3.16 µM
[18] = second compound 0.316 µM, first compound 10 µM
[19] = second compound 1 µM, first compound 0.0316 µM
[20] = second compound 1 µM, first compound 0.1 µM
[21] = second compound 1 µM, first compound 0.316 µM
[22] = second compound 1 µM, first compound 1 µM
[23] = second compound 1 µM, first compound 3.16 µM
[24] = second compound 1 µM, first compound 10 µM
[25] = second compound 3.16 µM, first compound 0.0316 µM
[26] = second compound 3.16 µM, first compound 0.1 µM
[27] = second compound 3.16 µM, first compound 0.316 µM
[28] = second compound 3.16 µM, first compound 1 µM
[29] = second compound 3.16 µM, first compound 3.16 µM
[30] = second compound 3.16 µM, first compound 10 µM
[31] = second compound 10 µM, first compound 0.0316 µM
[32] = second compound 10 µM, first compound 0.1 µM
[33] = second compound 10 µM, first compound 0.316 µM
[34] = second compound 10 µM, first compound 1 µM
[35] = second compound 10 µM, first compound 3.16 µM
[36] = second compound 10 µM, first compound 10 µM
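Note: spheroids exposed to agents for one week before readout.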

With `CC(C)NCC(C(=O)N1CCN(c2ncnc3c2C(C)CC3O)CC1)c1ccc(Cl)cc1` (centres undefined) + C#Cc1c(F)ccc2cc(O)cc(-c3ncc4c(N5CC6CCC(C5)N6)nc(OCC56CCCN5CC(F)C6)nc4c3F)c12 the IC50 (second compound 0.0316 µM) was 6.15 µM, the IC50 (second compound 0.1 µM) was 5.29 µM and the IC50 (second compound 0.316 µM) was 7.95 µM. The IC50 (second compound 1 µM) was 5.79 µM, the IC50 (second compound 3.16 µM) was 6.06 µM and the IC50 (second compound 10 µM) was 3.01 µM. The viability, T/C [1] was 101%, the viability, T/C [2] was 95.4% and the viability, T/C [3] was 100%. For the same molecule, the viability, T/C [4] was 86.5%, the viability, T/C [5] was 58.4% and the viability, T/C [6] was 44%. It also gave a viability, T/C [7] of 90%, a viability, T/C [8] of 103% and a viability, T/C [9] of 87.7%. For the same molecule, the viability, T/C [10] was 96.6%, the viability, T/C [11] was 58.8% and the viability, T/C [12] was 39%. The viability, T/C [13] was 105%, the viability, T/C [14] was 103% and the viability, T/C [15] was 78.9%. For the same molecule, the viability, T/C [16] was 92.4%, the viability, T/C [17] was 62% and the viability, T/C [18] was 45.5%. For the same molecule, the viability, T/C [19] was 104%, the viability, T/C [20] was 103% and the viability, T/C [21] was 87.6%. The viability, T/C [22] was 95.3%, the viability, T/C [23] was 55.4% and the viability, T/C [24] was 45.1%. For the same molecule, the viability, T/C [25] was 105%, the viability, T/C [26] was 102% and the viability, T/C [27] was 99.4%. The viability, T/C [28] was 91.1%, the viability, T/C [29] was 63.6% and the viability, T/C [30] was 39.4%. For the same molecule, the viability, T/C [31] was 98%, the viability, T/C [32] was 93.3% and the viability, T/C [33] was 89%. For the same molecule, the viability, T/C [34] was 94.1%, the viability, T/C [35] was 48% and the viability, T/C [36] was 32.8%.

For `CC(Nc1ccc2c(c1)OCCn1cc(N3C(=O)OCC3C(F)F)nc1-2)C(N)=O` (centres undefined) + C#Cc1c(F)ccc2cc(O)cc(-c3ncc4c(N5CC6CCC(C5)N6)nc(OCC56CCCN5CC(F)C6)nc4c3F)c12, the IC50 (second compound 0.0316 µM) was 4.9 µM, the IC50 (second compound 0.1 µM) was 3.94 µM and the IC50 (second compound 0.316 µM) was 4.32 µM. It also gave an IC50 (second compound 1 µM) of 4.49 µM, an IC50 (second compound 3.16 µM) of 4.63 µM and an IC50 (second compound 10 µM) of 2.91 µM. The viability, T/C [1] was 97.5%, the viability, T/C [2] was 88.9% and the viability, T/C [3] was 80.2%. It also gave a viability, T/C [4] of 69.6%, a viability, T/C [5] of 60.4% and a viability, T/C [6] of 37.4%. The viability, T/C [7] was 107%, the viability, T/C [8] was 82.7% and the viability, T/C [9] was 84.6%. It also gave a viability, T/C [10] of 62.7%, a viability, T/C [11] of 56.7% and a viability, T/C [12] of 37%. For the same molecule, the viability, T/C [13] was 110%, the viability, T/C [14] was 88.9% and the viability, T/C [15] was 73.9%. It also gave a viability, T/C [16] of 71.2%, a viability, T/C [17] of 55.1% and a viability, T/C [18] of 38.8%. It also gave a viability, T/C [19] of 96.3%, a viability, T/C [20] of 90.3% and a viability, T/C [21] of 78.5%. It also gave a viability, T/C [22] of 64.5%, a viability, T/C [23] of 60.3% and a viability, T/C [24] of 37%. It also gave a viability, T/C [25] of 103%, a viability, T/C [26] of 89.4% and a viability, T/C [27] of 79.6%. The viability, T/C [28] was 65.1%, the viability, T/C [29] was 64.8% and the viability, T/C [30] was 35.2%. The viability, T/C [31] was 99.5%, the viability, T/C [32] was 75.7% and the viability, T/C [33] was 68.8%. For the same molecule, the viability, T/C [34] was 63%, the viability, T/C [35] was 66.5% and the viability, T/C [36] was 23.8%.
